Among the data in ChEMBL document CHEMBL4706515, “Discovery of new [1,2,4] Triazolo[1,5-a]Pyrimidine derivatives that Kill gastric cancer cells via the mitochondria pathway” (Eur J Med Chem, 2020) are GI50, inhibition and Activity values, retold here.

The subject of test [1] is MGC-803. The test can be described thus: Antiproliferative activity against human MGC-803 cells assessed as inhibition of cell growth at measured after 72 hrs by SRB assay. The class given is functional. (In general: In SRB staining, fixed cells bind dye roughly in proportion to their protein.)
The next test relates to A549. The test can be described thus: Antiproliferative activity against human A549 cells assessed as inhibition of cell growth at measured after 72 hrs by SRB assay. The class given is functional.
Test [2] deals with MGC-803. The test can be described thus: Inhibition of cell proliferation in human MGC-803 cells at 2.5 uM measured after 72 hrs by SRB assay. The class given is functional, cell-based.
Test [3] has as its system MGC-803. Description: Induction of apoptosis in human MGC-803 cells assessed as necrotic cells at 2.5 uM measure after 24 hrs by Annexin-PI staining based Flowcytometry method (reference value: 3.13%). The class given is functional.
In test [4] the test system is MGC-803. The test can be described thus: Induction of apoptosis in human MGC-803 cells assessed as late apoptotic cells at 10 uM measure after 24 hrs by Annexin-PI staining based Flowcytometry method (reference value: 7.06%). In kind it is functional.
Test [5] concerns SGC-7901. The test can be described thus: Induction of apoptosis in human SGC-7901 cells assessed as early apoptotic cells at 0.625 uM measure after 24 hrs by Annexin-PI staining based Flowcytometry method (reference value: 2.68%). The class given is functional.
Test [6] has as its system SGC-7901. Description: Induction of apoptosis in human SGC-7901 cells assessed as early apoptotic cells at 5 uM measure after 24 hrs by Annexin-PI staining based Flowcytometry method (reference value: 2.68%). In kind it is functional.
Test [7] deals with SGC-7901. The test can be described thus: Induction of apoptosis in human SGC-7901 cells assessed as necrotic cells at 10 uM measure after 24 hrs by Annexin-PI staining based Flowcytometry method (reference value: 1.16%). In kind it is functional.
In test [8] the test system is MGC-803. Description: Induction of apoptosis in human MGC-803 cells assessed as increase in ROS production preincubated for 1 hr with NAC followed by compound addition at 2.5 uM measured after 24 hrs by DCHF-DA staining based Flowcytometry method. The class given is functional, cell-based.
Test [9] has as its system MGC-803. Description: Induction of apoptosis in human MGC-803 cells assessed as increase in accumulation of LC3B-2 preincubated with Chloroquine measured after 24 hrs by western blot assay. In kind it is functional, cell-based. A general note: A western blot detects proteins with antibodies after separation by electrophoresis.

Active and inactive are the calls of the source. The rule behind the calls is not given here. A value given as a limit tells only on which side of the number the result lay.

Turning to `Cc1cc(Nc2ccc(C(=O)/C=C/c3cccc(Br)n3)cc2)n2nc(SCc3nc4ccccc4[nH]3)nc2n1`, the concentration for 50% growth inhibition (GI50) (usually the concentration that inhibits growth by half) in the test on MGC-803 [1] is 640 nM; in the test on A549 it was above 10000 nM. In addition, in the test with MGC-803 [2], the inhibition result is “inactive”. Moreover, the Activity is 1.75% in the test with MGC-803 [3]; 36.4% in the test on MGC-803 [4]; 2.25% in the test with SGC-7901 [5]; 16.7% in the test on SGC-7901 [6]; 4.79% with SGC-7901 [7]. Also, the result in the test with MGC-803 [8] was inactive. In the test with MGC-803 [9], the result was Active.
